{
  "source": "paper PMC3836681",
  "about": "(Journal of molecular biology, 2012)",
  "assay_type_in_all_cases": "binding",
  "key": {"SMb20568": {"biological_target": "SMb20568 (Sinorhizobium meliloti, UniProt Q92TN0)", "assay": "fluorescence thermal shift", "conditions": "10 µM protein, 1000 µM ligand"}, "RPA0668 [1]": {"biological_target": "T1, RPA0668 (Rhodopseudomonas palustris, UniProt G3XCQ4)", "assay": "X-ray crystal structure […] Å", "conditions": "SeMet protein, 5 mM sodium BEZ in crystallization"}, "Bll5953": {"biological_target": "Bll5953 (Bradyrhizobium diazoefficiens, UniProt Q89HN7)", "assay": "fluorescence thermal shift", "conditions": "10 µM protein, 1000 µM ligand"}, "RPA4029": {"biological_target": "RPA4029 (Rhodopseudomonas palustris, UniProt Q6N2M1)", "assay": "fluorescence thermal shift", "conditions": "10 µM protein, 1000 µM ligand"}, "RPB1579": {"biological_target": "RPB1579 (Rhodopseudomonas palustris, UniProt Q2IZS1)", "assay": "fluorescence thermal shift", "conditions": "10 µM protein, 1000 µM ligand"}, "RPA0668 [2]": {"biological_target": "T1, RPA0668", "assay": "X-ray crystal structure […] Å", "conditions": "SeMet protein, 5 mM sodium PHB in crystallization"}, "RPD1586 [3]": {"biological_target": "T2, RPD1586 (Rhodopseudomonas palustris, UniProt Q13AR6)", "assay": "X-ray crystal structure […] Å", "conditions": "SeMet protein"}, "RPD1586 [4]": {"biological_target": "T2, RPD1586", "assay": "X-ray crystal structure […] Å", "conditions": "SeMet protein, 5 mM sodium VLA in crystallization"}, "RPA0668 [5]": {"biological_target": "T1, RPA0668", "assay": "fluorescence thermal shift", "conditions": "10 µM protein, 1000 µM ligand"}},
  "data": [
    {"smiles": "O=C(O)c1cccc(O)c1", "note": "[3-hydroxybenzoate]", "values": [
      {"measurement": "ΔTm", "setting": "SMb20568", "value": "increased protein stability of SMb20568 with 3-hydroxybenzoate or gallic acid"}
    ]},
    {"smiles": "O=C(O)c1ccccc1", "note": "[BEZ, benzoate]", "values": [
      {"measurement": "X-ray crystal structure 1.84 Å; fluorescence thermal shift", "setting": "RPA0668 [1]", "value": "RPA0668 has been determined in complex with the two most preferred ligands BEZ and PHB"}
    ]},
    {"smiles": "O=C(O)c1ccc(O)c(O)c1", "note": "[DHB, 3,4-dihydroxybenzoate]", "values": [
      {"measurement": "ΔTm", "setting": "Bll5953", "value": "the preferred ligands (DHB, VLA) are the same for each protein"},
      {"measurement": "ΔTm", "setting": "RPA4029", "value": "the preferred ligands (DHB, VLA) are the same for each protein"},
      {"measurement": "ΔTm", "setting": "RPB1579", "value": "the preferred ligands (DHB, VLA) are the same for each protein"},
      {"measurement": "ΔTm", "setting": "SMb20568", "value": "equivalent thermal stabilization with 4-hydroxybenzoate (PHB) and DHB"}
    ]},
    {"smiles": "O=C(O)c1ccc(O)cc1", "note": "[PHB, 4-hydroxybenzoate]", "values": [
      {"measurement": "X-ray crystal structure 1.40 Å; fluorescence thermal shift", "setting": "RPA0668 [2]", "value": "RPA0668 has been determined in complex with the two most preferred ligands BEZ and PHB"},
      {"measurement": "ΔTm", "setting": "SMb20568", "value": "equivalent thermal stabilization with 4-hydroxybenzoate (PHB) and DHB"},
      {"measurement": "X-ray crystal structure 2.22 Å; fluorescence thermal shift", "setting": "RPD1586 [3]", "value": "RPD1586 protein from the Ic subgroup was crystallized with PHB, DHB, and VLA"}
    ]},
    {"smiles": "COc1cc(C(=O)O)ccc1O", "note": "[VLA, 4-hydroxy-3-methoxybenzoate]", "values": [
      {"measurement": "ΔTm", "setting": "Bll5953", "value": "the preferred ligands (DHB, VLA) are the same for each protein"},
      {"measurement": "ΔTm", "setting": "RPA4029", "value": "the preferred ligands (DHB, VLA) are the same for each protein"},
      {"measurement": "ΔTm", "setting": "RPB1579", "value": "the preferred ligands (DHB, VLA) are the same for each protein"},
      {"measurement": "X-ray crystal structure 1.86 Å; fluorescence thermal shift", "setting": "RPD1586 [4]", "value": "RPD1586 protein from the Ic subgroup was crystallized with PHB, DHB, and VLA"}
    ]},
    {"smiles": "O=Cc1ccccc1", "note": "[benzaldehyde]", "values": [
      {"measurement": "ΔTm", "setting": "RPA0668 [5]", "value": "excellent thermal stabilization is observed for aromatic compounds with an aldehyde or carboxyl group"}
    ]},
    {"smiles": "O=C(O)c1cc(O)c(O)c(O)c1", "note": "[gallic acid]", "values": [
      {"measurement": "ΔTm", "setting": "SMb20568", "value": "exhibits a greater ΔTm with gallic acid"}
    ]}
  ]
}
